Measured values taken from patent publication US20260364184A1, “COMPOUND BASED ON OXOISOINDOLINYL-SUBSTITUTED TETRAHYDROPYRIMIDINE-DIONE AND USE THEREOF” (GLUETACS THERAPEUTICS (SHANGHAI) CO., LTD., priority 2023, published 2026).

Experiments:
[1] = system: Human non-small cell lung cancer cell line NCI-H1975; experiment: Inhibition of H1975 cell proliferation (CellTiter luminescent viability); assay type: cell-based; details: Table ID1, EGFR inhibitor-based; H1975, 96 hours; read-out: Inhibitory activity (IC50, nM) on tumor cell proliferation, H1975
Description: The tumor cells used herein were cultured in a cell culture medium listed in table 3 at 37 °C in an incubator with 5% CO2. Prior to experimentation, all cell lines used were correctly identified by STR profiling, and tested negative for mycoplasma contamination using a mycoplasma detection kit through routine screenings.
The IC50 values of the compounds of the present disclosure (including the compounds in Table 1, Table 2, and Examples 1-468) were determined using the CellTiter-Meiluncell Luminescent Cell Viability Assay Kit from Dalian Meilun Biotech Co., Ltd. The detailed procedure is as follows: Tumor cells were seeded in 96-well cell culture plates at the densities specified in Table 4. On the following day, the test compounds of the present disclosure were subjected to serial dilution. The dilution can be performed according to one of the following two methods: • (1) The first dilution method: The test compounds of the present disclosure (including the compounds in Table 1, Table 2, and Examples 1-468) were subjected to 5-fold serial dilutions starting from a highest concentration of 2000 μM, resulting in a total of 9 concentrations from high to low (2000, 400, 80, 16, 3.2, 0.64, 0.128, 0.0256, 0.00512 μM). Subsequently, 0.5 μL of the test compound dilution was transferred into the 96-well plate containing the cells, with each well containing 100 μL of cell culture medium. […] Into the 96-well plate, the diluted test compounds and corresponding detection reagents were added, resulting in final test compound concentrations of 500 nM and 10 nM, respectively. The experimental procedure is described below using the diluted 2 μM test compound as an example.
0.5 μL of the aforementioned diluted compound of the present disclosure (including the compounds in Table 1, Table 2, and Examples 1-468) was added to the seeded cells in 100 μL of medium, yielding a final test compound concentration of 10 nM. After the cells were treated with the compounds of the present disclosure for a specified period, the cell viability assay reagent was added to the culture medium according to the kit's instructions to determine cell viability. […] All controls were treated using the same procedure as the compounds of the present disclosure. The growth inhibition curves for the compounds of the present disclosure were plotted using Prism GraphPad software, and the IC50 values were calculated therefrom.

[2] = biological target: T1, EGFR (Homo sapiens, UniProt P00533); experiment: Western blot degradation of EGFR; assay type: cell-based; details: H1975 Cell; 24 hours
T1 construct: L858R/T790M in cis, heterozygous with wild type), Western blot
Description: Conventional Western blot assay was performed to evaluate the effects of the compounds of the present disclosure on the expression of target proteins in cells.
(1) Cell Seeding and Protein Harvesting: The selected cells were processed according to the cell seeding procedure and protein harvesting procedure in Table II-2.
(2) To the collected supernatant, 5×SDS sample loading buffer was added, followed by denaturation at 95 °C for 5 minutes. The denatured samples were then separated by SDS-PAGE electrophoresis on a polyacrylamide gel. Proteins were transferred to a nitrocellulose membrane (0.45 μm NC membrane), blocked with blocking buffer at room temperature for 1 hour, and subjected to antibody incubation and development procedures according to the antibody manufacturer's instructions (Cell Signaling Technology).
Half-Maximal Degradation Concentration value (the drug concentration required for degrading proteins by 50%, abbreviated as DC50) reads method: comparing the grayscale values of Western blot bands from drug-treated samples with those from blank DMSO-treated controls, and identifying the drug concentration range at which the grayscale value is half that of the DMSO-treated control bands.
DC50 values can be calculated using ImageJ software to measure grayscale values of Western blot bands from drug-treated samples. The concentration-response curve is fitted to estimate the drug concentration corresponding to half the grayscale value.
Target protein remaining (%) refers to the percentage of target protein remaining in cells after treatment with protein degrader compounds.
Calculation method for target protein remaining (%): Use ImageJ software to measure grayscale values of Western blot bands from drug (protein degrader)-treated samples. The grayscale value of drug-treated bands is divided by that of internal control protein bands, and the resulting quotient is normalized to obtain the relative percentage of remaining target protein after protein degrader treatment.
Target protein degradation rate (%)=1−target protein remaining (%).

[3] = biological target: T2, human Cereblon WT GST-tagged protein (CRBN) (Homo sapiens, UniProt Q96SW2); experiment: CRBN binding by HTRF (Cereblon binding kit); details: for inhibition at 0.5 µM: read-out: Inhibition Rate at 0.5 μM (%); for inhibition at 2 µM: read-out: Inhibition Rate at 2 μM (%)
T2 construct: purchased CISBIO 64BDCRBNPEH
Summary of the method: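 GST-tagged human Cereblon WT was incubated 3 h at room temperature with compound, thalidomide-Re tracer and Eu anti-GST antibody. Final compound concentrations were 10 to 0.00064 µM (7 points) or 2 and 0.5 µM. Inhibition rate was calculated from HTRF 665/620 nm ratios versus solvent and blank controls.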

T2 sequence (Q96SW2 whole entry): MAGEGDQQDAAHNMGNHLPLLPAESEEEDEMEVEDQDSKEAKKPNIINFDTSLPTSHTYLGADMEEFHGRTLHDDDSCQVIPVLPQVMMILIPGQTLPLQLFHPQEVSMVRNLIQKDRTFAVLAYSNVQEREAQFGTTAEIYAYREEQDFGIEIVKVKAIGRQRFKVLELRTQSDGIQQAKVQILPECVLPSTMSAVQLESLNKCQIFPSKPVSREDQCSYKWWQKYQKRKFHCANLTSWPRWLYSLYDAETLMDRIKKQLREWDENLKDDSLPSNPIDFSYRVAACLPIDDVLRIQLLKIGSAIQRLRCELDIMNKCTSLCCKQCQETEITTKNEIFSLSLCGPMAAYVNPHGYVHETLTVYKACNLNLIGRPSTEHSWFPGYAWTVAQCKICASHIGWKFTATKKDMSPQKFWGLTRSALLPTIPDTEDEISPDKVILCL
T1 sequence (P00533 25-1210): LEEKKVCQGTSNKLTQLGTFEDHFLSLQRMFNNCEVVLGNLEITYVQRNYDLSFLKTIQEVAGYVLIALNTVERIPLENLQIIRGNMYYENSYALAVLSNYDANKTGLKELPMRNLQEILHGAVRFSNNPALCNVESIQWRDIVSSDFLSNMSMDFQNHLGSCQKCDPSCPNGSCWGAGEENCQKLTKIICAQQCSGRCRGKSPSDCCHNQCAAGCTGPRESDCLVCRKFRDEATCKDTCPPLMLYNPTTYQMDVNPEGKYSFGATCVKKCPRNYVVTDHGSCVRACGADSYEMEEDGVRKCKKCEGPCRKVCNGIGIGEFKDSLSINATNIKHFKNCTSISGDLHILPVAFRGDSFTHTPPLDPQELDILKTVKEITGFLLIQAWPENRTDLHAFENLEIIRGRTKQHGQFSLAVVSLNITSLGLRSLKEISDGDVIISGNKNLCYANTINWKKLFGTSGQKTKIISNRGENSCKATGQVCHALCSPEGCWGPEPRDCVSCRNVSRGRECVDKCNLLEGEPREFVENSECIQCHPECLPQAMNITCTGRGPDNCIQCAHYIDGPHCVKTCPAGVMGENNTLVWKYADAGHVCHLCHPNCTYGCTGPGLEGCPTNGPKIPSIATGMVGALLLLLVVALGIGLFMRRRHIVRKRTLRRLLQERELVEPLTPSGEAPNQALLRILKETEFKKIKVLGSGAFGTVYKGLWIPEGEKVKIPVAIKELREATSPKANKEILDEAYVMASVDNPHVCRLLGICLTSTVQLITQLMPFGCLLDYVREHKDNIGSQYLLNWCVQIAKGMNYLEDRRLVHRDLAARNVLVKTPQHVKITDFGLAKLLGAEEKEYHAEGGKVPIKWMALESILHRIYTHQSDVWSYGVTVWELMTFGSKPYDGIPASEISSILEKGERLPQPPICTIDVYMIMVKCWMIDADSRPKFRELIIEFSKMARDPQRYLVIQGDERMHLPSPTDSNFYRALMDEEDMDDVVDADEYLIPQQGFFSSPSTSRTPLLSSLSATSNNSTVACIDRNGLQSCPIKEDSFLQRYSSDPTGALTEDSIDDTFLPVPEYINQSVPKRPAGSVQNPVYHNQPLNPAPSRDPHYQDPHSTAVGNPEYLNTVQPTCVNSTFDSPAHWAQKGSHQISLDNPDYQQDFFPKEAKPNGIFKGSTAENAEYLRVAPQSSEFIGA
T1 sequence (Q96SW2 whole entry partner): as the sequence (Q96SW2 whole entry) above

SMILES	IC50 [1]	Degradation of substrate protein EGFR (substrate protein remaining %) [2]	further results
CN(Cc1ccc2c(c1)C(=O)N(N1CCC(=O)NC1=O)C2=O)C1CCN(c2ccc(-c3cc(F)c4c(c3)C(=O)N(C(C(=O)Nc3nccs3)c3ncn5c3CCC5)C4)cc2)CC1 (stereo not shown) [GT-05196, 2-(6,7-dihydro-5H-pyrrolo[1,2-c]imidazol-1-yl)-2-(6-(4-(4-(((2-(2,4-dioxotetrahydropyrimidin-1(2H)-yl)-1,3-dioxoisoindolin-5-yl)methyl)(methyl)amino)piperidin-1-yl)phenyl)-4-fluoro-1-oxoisoindolin-2-yl)-N-(thiazol-2-yl)acetamide]	10 to 50 nM		
CN(Cc1ccc2c(c1)CN(N1CCC(=O)NC1=O)C2=O)C1CCN(c2ccc(Nc3ncc4nc(Nc5ccccc5)n(C5CCCC5)c4n3)cc2)CC1 [GT-05842, 1-(5-(((1-(4-((9-cyclopentyl-8-(phenylamino)-9H-purin-2-yl)amino)phenyl)piperidin-4-yl)(methyl)amino)methyl)-1-oxoisoindolin-2-yl)dihydropyrimidine-2,4 (1H,3H)-dione]		A (0%≤substrate protein remaining %≤80%)	inhibition at 0.5 µM [3]: 10 to 20%; inhibition at 2 µM [3]: 53 to 60%
COC1CCN(c2nccc(Nc3cc4c(cn3)c(N3CCN(CC5CCN(c6cccc7c6C(=O)N(N6CCC(=O)NC6=O)C7=O)CC5)CC3)nn4C(C)C)n2)CC1 [GT-06035, 2-(2,4-dioxotetrahydropyrimidin-1(2H)-yl)-4-(4-((4-(1-isopropyl-6-((2-(4-methoxypiperidin-1-yl)pyrimidin-4-yl)amino)-1H-pyrazolo[4,3-c]pyridin-3-yl)piperazin-1-yl)methyl)piperidin-1-yl)isoindoline-1,3-dione]		A (0%≤substrate protein remaining %≤80%)	
CC(C)n1nc(N2CCN(CC3CCN(c4ccc5c(c4)C(=O)N(N4CCC(=O)NC4=O)C5=O)CC3)CC2)c2cnc(Nc3ccnc(-c4cnn(S(=O)(=O)C5CC5)c4)n3)cc21 [GT-06073, 5-(4-((4-(6-((2-(1-(cyclopropylsulfonyl)-1H-pyrazol-4-yl)pyrimidin-4-yl)amino)-1-isopropyl-1H-pyrazolo[4,3-c]pyridin-3-yl)piperazin-1-yl)methyl)piperidin-1-yl)-2-(2,4-dioxotetrahydropyrimidin-1(2H)-yl)isoindoline-1,3-dione]		A (0%≤substrate protein remaining %≤80%)	
CC(C)n1nc(N2CCC(N3CCN(Cc4ccc5c(c4)CN(N4CCC(=O)NC4=O)C5=O)CC3)CC2)c2cnc(Nc3ccnc(-c4cnn(S(=O)(=O)C5CC5)c4)n3)cc21 [GT-06077, 1-(5-((4-(1-(6-((2-(1-(cyclopropylsulfonyl)-1H-pyrazol-4-yl)pyrimidin-4-yl)amino)-1-isopropyl-1H-pyrazolo[4,3-c]pyridin-3-yl)piperidin-4-yl)piperazin-1-yl)methyl)-1-oxoisoindolin-2-yl)dihydropyrimidine-2,4 (1H,3H)-dione]		A (0%≤substrate protein remaining %≤80%)	
COC1CCN(c2nccc(Nc3cc4c(cn3)c(N3CCC(N(C)CC5CCN(c6cccc7c6C(=O)N(N6CCC(=O)NC6=O)C7=O)CC5)CC3)nn4C(C)C)n2)CC1 [GT-06119, 2-(2,4-dioxotetrahydropyrimidin-1(2H)-yl)-4-(4-(((1-(1-isopropyl-6-((2-(4-methoxypiperidin-1-yl)pyrimidin-4-yl)amino)-1H-pyrazolo[4,3-c]pyridin-3-yl)piperidin-4-yl)(methyl)amino)methyl)piperidin-1-yl)isoindoline-1,3-dione]		A (0%≤substrate protein remaining %≤80%)	inhibition at 0.5 µM [3]: 10 to 20%; inhibition at 2 µM [3]: 53 to 60%
COc1cc(N2CCC(N3CCN(Cc4ccc5c(c4)C(=O)N(N4CCC(=O)NC4=O)C5=O)CC3)CC2)c(C)cc1Nc1ncc(Br)c(Nc2ccc3nccnc3c2P(C)(C)=O)n1 [GT-06154, 5-((4-(1-(4-((5-bromo-4-((5-(dimethylphosphoryl)quinoxalin-6-yl)amino)pyrimidin-2-yl)amino)-5-methoxy-2-methylphenyl)piperidin-4-yl)piperazin-1-yl)methyl)-2-(2,4-dioxotetrahydropyrimidin-1(2H)-yl)isoindoline-1,3-dione]		A (0%≤substrate protein remaining %≤80%)	
O=C1CCN(N2C(=O)c3ccc(CN4CCN(c5ccc(-c6cc(F)c7c(c6)C(=O)N(C(C(=O)Nc6nccs6)c6ncn8c6CCC8)C7)cc5)CC4)cc3C2=O)C(=O)N1 (stereo not shown) [GT-06160, 2-(6,7-dihydro-5H-pyrrolo[1,2-c]imidazol-1-yl)-2-(6-(4-(4-((2-(2,4-dioxotetrahydropyrimidin-1(2H)-yl)-1,3-dioxoisoindolin-5-yl)methyl)piperazin-1-yl)phenyl)-4-fluoro-1-oxoisoindolin-2-yl)-N-(thiazol-2-yl)acetamide]	100 to 130 nM		
O=C1CCN(N2C(=O)c3cccc(N4CCC(CN5CCN(c6ccc(-c7cc(F)c8c(c7)C(=O)N(C(C(=O)Nc7nccs7)c7ncn9c7CCC9)C8)cc6)CC5)CC4)c3C2=O)C(=O)N1 (stereo not shown) [GT-06162, 2-(6,7-dihydro-5H-pyrrolo[1,2-c]imidazol-1-yl)-2-(6-(4-(4-((1-(2-(2,4-dioxotetrahydropyrimidin-1(2H)-yl)-1,3-dioxoisoindolin-4-yl)piperidin-4-yl)methyl)piperazin-1-yl)phenyl)-4-fluoro-1-oxoisoindolin-2-yl)-N-(thiazol-2-yl)acetamide]	10 to 50 nM		
O=C1CCN(N2Cc3cc(CN4C[C@H]5C[C@@H]4CN5c4ccc(-c5cc(F)c6c(c5)C(=O)N(C(C(=O)Nc5nccs5)c5ncn7c5CCC7)C6)cc4)ccc3C2=O)C(=O)N1 (stereo partly drawn) [GT-06172, 2-(6,7-dihydro-5H-pyrrolo[1,2-c]imidazol-1-yl)-2-(6-(4-((1R,4R)-5-((2-(2,4-dioxotetrahydropyrimidin-1(2H)-yl)-1-oxoisoindolin-5-yl)methyl)-2,5-diazabicyclo[2.2.1]heptan-2-yl)phenyl)-4-fluoro-1-oxoisoindolin-2-yl)-N-(thiazol-2-yl)acetamide]	< 10 nM		
O=C1CCN(N2C(=O)c3ccc(CN4C[C@H]5C[C@@H]4CN5c4ccc(-c5cc(F)c6c(c5)C(=O)N(C(C(=O)Nc5nccs5)c5ncn7c5CCC7)C6)cc4)cc3C2=O)C(=O)N1 (stereo partly drawn) [GT-06173, 2-(6,7-dihydro-5H-pyrrolo[1,2-c]imidazol-1-yl)-2-(6-(4-((1R,4R)-5-((2-(2,4-dioxotetrahydropyrimidin-1(2H)-yl)-1,3-dioxoisoindolin-5-yl)methyl)-2,5-diazabicyclo[2.2.1]heptan-2-yl)phenyl)-4-fluoro-1-oxoisoindolin-2-yl)-N-(thiazol-2-yl)acetamide]	50 to 100 nM		
CN(Cc1ccc2c(c1)C(=O)N(N1CCC(=O)NC1=O)C2=O)C1CCN(c2ccc(Nc3ncc4nc(Nc5ccccc5)n(C5CCCC5)c4n3)cc2)CC1 [GT-07113, 5-(((1-(4-((9-cyclopentyl-8-(phenylamino)-9H-purin-2-yl)amino)phenyl)piperidin-4-yl)(methyl)amino)methyl)-2-(2,4-dioxotetrahydropyrimidin-1(2H)-yl)isoindoline-1,3-dione]		A (0%≤substrate protein remaining %≤80%)	
